The test system of one assay is astrocytes. The assay is described as follows: Lysosomal zinc (FluoZin-3 with LysoTracker). As to conditions: 10 μM AMX for 30 minutes. Type of assay: cell-based.
Assay [1] deals with primary hippocampal neurons. Kind of assay: Scratch injury: p-PKA analysis. The format is cell-based, rat. As to conditions: 10 μM AMX immediately after scratch, 6 hours post-injury. The method, then:
Primary hippocampal neurons were obtained from embryonic day 18 (E18) Sprague-Dawley rat embryos. Pregnant rats were anesthetized using 2-3% isoflurane in a gas mixture of 70% nitrous oxide and 30% oxygen. Following euthanasia, the hippocampi were carefully dissected, minced, and enzymatically dissociated using TrypLE Express (Gibco, NY, USA) for 10 minutes at 37°C. The tissue was further mechanically dissociated using fire-polished glass pipettes, and the resulting cell suspension was filtered through a 70 μm cell strainer to remove debris. Neurons were seeded at a density of 3 × 10^5 cells per well in 24-well plates pre-coated with poly-L-lysine (Sigma-Aldrich, Saint Louis, MO, USA). […]
A scratch injury model was used to mimic TBI in vitro. […] After the treatment period, neuronal damage and recovery were assessed using appropriate evaluation methods.
Six hours after the scratch assay, cellular activity was terminated by replacing the culture medium with 0.1 M HCl. Cell lysates were then collected and analyzed for PKA activity using a commercial PKA kinase activity assay kit (Abcam, ab139435), following the manufacturer's protocol. […] Substrate phosphorylation was detected using a phospho-specific primary antibody and an HRP-conjugated secondary antibody. […] PKA activity was quantified as optical density (OD) values and expressed relative to control samples.

Another assay relates to hippocampus of TBI rats. The assay is described as follows: Controlled cortical impact TBI: hippocampal Western blot. Type of assay: in vivo, rat. The method, then:
(§1) This study used male Sprague-Dawley rats weighing 300-350 g and aged 8 weeks, obtained from DBL Co. (Chungcheongbuk-do, Republic of Korea). The rats were housed in a controlled environment with a temperature of 20 ± 2 °C, a relative humidity of 55 ± 5%, and a 12-hour light/dark cycle. They were provided ad libitum access to food and water. To minimize stress associated with transportation, animals underwent a one-week acclimatization period before the start of the experiments. All experimental procedures were conducted in compliance with the guidelines of the National Institutes of Health for the care and use of laboratory animals and were approved by the Hallym University Institutional Animal Care and Use Committee (protocol # Hallym 2022-23, approved on July 15, 2022). This manuscript follows the principles outlined in the Animal research: reporting in vivo experiments (ARRIVE) guidelines.
A controlled cortical impact (CCI) model was used to induce TBI in rats. Animals were anesthetized with 1-1.5% isoflurane in a 30:70 oxygen-to-nitrous oxide mixture and securely positioned in a stereotaxic frame. A 3 mm craniotomy was performed using a portable drill at a site 2.8 mm lateral to the midline and 3.0 mm posterior to Bregma. TBI was induced using an Impact One™ Stereotaxic Impactor (Leica Biosystems) equipped with a 3 mm flat-tip, set to deliver an impact at a velocity of 5 m/s and a depth of 3 mm. Throughout the procedure, body temperature was maintained at 36-37.5°C using a homeothermic blanket system to prevent hypothermia. […] At designated time points (3 hours, 24 hours, or 2 weeks post-injury), animals were euthanized via transcardial perfusion with saline, followed by 4% paraformaldehyde (PFA). Brains were post-fixed in 4% PFA for 1 hour, cryoprotected in 30% sucrose, and sectioned at a 30 μm thickness using a cryostat microtome (CM1850; Leica, Wetzlar, Germany). Brain sections were stored in cryoprotectant solution at 4°C until further analysis.
Hippocampal samples were homogenized in a lysis buffer containing RIPA buffer (IBS-BR002, iNtRON, Republic of Korea), phosphatase inhibitor (Sigma, USA), and protease inhibitor (Sigma, USA). The homogenates were centrifuged at 14,000 × g for 20 minutes at 4°C, and the supernatants were collected. Protein concentrations were determined using the Bradford protein assay. For analysis, 25 μg of protein from each sample was mixed with SDS loading buffer, separated through SDS-PAGE, and transferred onto PVDF membranes. Membranes were blocked for 2 hours at room temperature with either 5% skim milk or 3% BSA to minimize nonspecific binding. Subsequently, the membranes were incubated overnight at 4°C with primary antibodies diluted in blocking buffer. The following primary antibodies were used: p-p38 MAPK (1:1000, Cell Signaling), p-eIF2α (1:1000, Cell Signaling), p-PERK (1:1000, Cell Signaling), LAMP2 (1:1000, Invitrogen), LC3B (1:1000, Invitrogen), IL-1β (1:500, Gene Tex), TNF-α (1:500, Abcam), and β-actin (1:10,000, Cell Signaling). After primary antibody incubation, membranes were washed in TBS-T (Bio-Rad) and incubated with secondary antibodies for 1 hour at room temperature. Signals were visualized using a chemiluminescence detection system and captured with a bioimaging instrument (Amersham Imager 680, Marlborough, USA).

For another assay, the system named is TBI rats. The assay is described as follows: Controlled cortical impact TBI: modified neurological severity score. Type of assay: in vivo, rat. The method, then:
as §1
A controlled cortical impact (CCI) model was used to induce TBI in rats. Animals were anesthetized with 1-1.5% isoflurane in a 30:70 oxygen-to-nitrous oxide mixture and securely positioned in a stereotaxic frame. […]
The mNSS provides a quantitative measure of neurological function, with scores ranging from 0 (normal function) to 18 (severe dysfunction). The test evaluates multiple parameters to comprehensively assess neurological deficits: 1) Tail Suspension (3 points)—The rat's ability to be lifted by its tail is assessed, with higher scores indicating increased difficulty or inability to lift. 2) Balance and Posture (3 points)—The rat's ability to maintain proper posture and balance when placed on a flat surface is observed and scored. 3) Sensory Function ([…])—Sensory responses, including reactions to tactile or pain stimuli, are evaluated. 4) Beam Balance Test (6 points)—The rat's ability to walk on a narrow beam is assessed. […] 5) Reflexes and Abnormal Movements (4 points)—The presence or absence of reflexes, as well as abnormal behaviors or movements, are recorded and scored.

A further assay relates to BV2 cells. As to conditions: NF-κB/STAT3 downregulation; cited from earlier work.
The mark [2] stands for this setting: hippocampus, 24 hours after TBI.
The mark [3] stands for this setting: rat hippocampus, 24 hours post-TBI.
[4] abbreviates: rat hippocampus, 24 hours post-TBI, vs TBI-vehicle.

Turning to `CC(C)c1ccc2oc3nc(N)c(C(=O)O)cc3c(=O)c2c1` [AMX, amlexanox], the “lysosomal zinc (FluoZin-3 fluorescence)” value in the assay with astrocytes was “significant increase in zinc fluorescence within lysosomes”. Moreover, the “p-PKA levels after scratch injury (ELISA)” value in assay [1] was “restored cAMP and p-PKA levels”. In addition, in the assay on hippocampus of TBI rats (setting [2]), the “IL-1β expression (Western blot)” value is on record as “markedly reduced the expression of both cytokines” and the “TNF-α expression (Western blot)” value was “markedly reduced the expression of both cytokines”. For the same compound, in the assay with hippocampus of TBI rats (setting [3]), the LAMP2 expression result was “preserved LAMP2 and LC3B expression”; the LC3B expression result was “preserved LAMP2 and LC3B expression”. Moreover, in the assay on hippocampus of TBI rats (setting [4]), the “phosphorylation of PERK” value is “significantly reduced the phosphorylation levels”, the “phosphorylation of eIF2α” value is on record as “significantly reduced the phosphorylation levels” and the “phosphorylation of p38 MAPK” value is “significantly reduced the phosphorylation levels”. In addition, the “beam balance test of mNSS (balance control, videos)” value in the assay on TBI rats (TBI-AMX vs TBI-vehicle) is recorded as “performed better”. Moreover, the ΔmNSS result in the assay with TBI rats (between day 1 and subsequent time points, vs vehicle) is recorded as “greater improvements in ΔmNSS”. Also, the mNSS scores result in the assay with TBI rats (days 1 to 7 after TBI, daily AMX 100 mg/kg i.p., vs vehicle) is “lower mNSS scores”. The LPS-induced microglial activation entry with BV2 cells is given as “attenuated LPS-induced microglial activation”.

These data come from PMC12320245 (International Journal of Biological Sciences, 2025).
